Data published in patent US20170095565A1, “CHEMICALLY MODIFIED SMALL MOLECULES” (Nektar Therapeutics, priority 2003, published 2017).
Structures can show the parent of a compound that is named as a salt. Where two headings read alike, the source gives them in different places.

Key:
[1] = PEG-CIPRO absorption from lung after IT administration; details: Cipro and PEG-Cipro
Text: In vivo absorption data was collected through rat studies, in which, following IT administration to rats, whole lungs were excised and analyzed for test article concentration.

[2] = Cell-based permeability in Calu-3 cells; assay type: in vitro ADME; details: human
Experimental: In vitro cell-based experiments (in a Calu-3 assay) were performed for PEG-FITC conjugates. The Calu-3 cells were cultured with an apical air-interface to mimic the in vivo epithelium.

[3] = Lung residence after intratracheal administration (BAL, BAL cells, residual lung, serum); assay type: in vivo, rats; details: for half-life: rat, other: intratracheal (IT), 30 μg
Experimental: To determine the effect of PEG length on residence time in the lung, a series of in vivo experiments was performed in which each PEG-FITC species was administered intratracheally (IT) to rats, and the amount remaining in the lung was determined at progressive time points. For each species, 30 μg PEG-FITC, prepared in PBS/0.5% BSA, was administered IT to rats (300 μL of a 100 μg/mL solution). […] Following the lavage, lungs were excised, and samples of serum were extracted. The resulting lavage solution was then centrifuged to pellet the cellular fraction (BAL cells) and separate it from the BAL supernatant.
Samples from BAL, BAL cells and serum were read directly in microtiter plates with no prior treatment. To quantitate PEG-FITC remaining in the residual lung material, however, the excised lungs were homogenized and PEG-FITC was extracted in ethanol.
For all samples, quantitation was performed by interpolation from a standard curve generated from known concentrations of the relevant molecule prepared in the correlating matrix. Thus for samples of BAL and BAL cells, the standard samples were prepared in 0.9% NaCl, for serum samples, the standards were prepared in commercially obtained rat serum, and for lung extracts, the standard samples were prepared in PBS: Ethanol (1:3).
For BAL studies, the total amount remaining was calculated for each animal from the product of the concentration and the BAL volume recorded. For BAL cells, the pellet was resuspended in 1 mL; the amount present was calculated accordingly. For residual lung tissue, the amount present in both lungs (μg/lung) was calculated from the product of the concentration and the homogenate volume. Note that although the nominal dose delivered in each experiment was 30 μg, the dosing solution was analyzed from the same standard curve for each experiment and the actual delivered dose was calculated. The data shown throughout this specification are thus corrected for each PEG-FITC species respectively and are represented as percentage dose administered. The doses delivered in each experiment are represented in Table VIII below.

Row | Elimination from lung (rat IT) [1] | Papp [2] | Portion of dose associated with BAL cells ([3]; 10 min) | Dose recovered in BAL ([3]; 10 min following IT administration) | Serum peak as proportion of administered dose ([3]; 10 min post dose) | Peak amount in serum ([3]; 10 min post dose, based on rat serum volume of approximately 8 mL) | Dose recovered in combined lung-derived fractions ([3]; 10 min post-dose) | Elimination from lung (rat IT) ([3]; fluorescein, PEG and PEG-FITC) | BAL k-el ([3]; rat IT, BAL supernatant) | BAL t1/2-el ([3]; rat IT, elimination half-life from BAL) | half-life ([3]; bronchoalveolar lavage (BAL) supernatant, rat IT, elimination half-life from BAL, read-out: BAL t1/2-el) | half-life ([3]; combined lung compartments, rat IT, combined lung compartments, read-out: Lung t1/2-el (converted)) | BAL t90 ([3]; time at which 90% of the dose would be eliminated) | BAL t99 ([3]; time at which 99% of the dose would be eliminated) | SMILES
1 | 10.24 h⁻¹ | – | – | – | – | – | – | – | – | – | – | – | – | – | O=C(O)c1cn(C2CC2)c2cc(N3CCNCC3)c(F)cc2c1=O [Cipro HCl, ciprofloxacin]
2 | – | 0.34 ×10⁻⁶ cm/s | approximately 13% | less than 50% | less than 10% | approximately 2 μg | less than 50% | 1.38 h⁻¹ | 1.3253 | 31.4 min | < 31.2 min | 30.1 min | 1.74 h | 3.5 h | O=C1OC2(c3ccc(O)cc3Oc3cc(O)ccc32)c2ccccc21 [Sodium fluorescein, sodium fluorescein]
